According to patent US10934297B2, “5-heteroaryl substituted indazole-3-carboxamides and preparation and use thereof” (Samumed, LLC, priority 2018, dated 2021):

Assays:
[1] = test system: Wnt activity (Sp5-Luc reporter in SW480 cells); experiment: Screening assay for Wnt activity: Sp5-Luc reporter gene assay in SW480 colon carcinoma cells; format: cell-based, human; conditions: Homo sapiens, 36 to 48 hours
In short: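 SW480 colon carcinoma cells stably carrying a lentiviral luciferase reporter driven by an Sp5 promoter with eight TCF/LEF sites, plated at 4,000 cells/well in DMEM with 1% FBS. Compound exposure for 36–48 h at 37 °C, then luminescence read. Signals normalized to DMSO; EC50 from four-parameter nonlinear fit.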

DYRK1A kinase = DYRK1A kinase (Homo sapiens (Human), UniProt Q13627); experiment: DYRK1A kinase assay (Ser/Thr 18 peptide Z-lyte FRET); format: biochemical; conditions: read-out: EC50 (method: IC50)
In short: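 This Z-lyte FRET assay reads the coumarin/fluorescein emission ratio. Compounds were incubated with the reaction mixture for 1 h at room temperature, followed by development reagent for a further 1 h at room temperature, in duplicate.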

GSK3β kinase = GSK3β kinase (Homo sapiens (Human), UniProt P49841); experiment: GSK3β kinase assay (Ser/Thr 09 peptide Z-lyte FRET); format: biochemical; conditions: read-out: EC50 (method: IC50)
Chain of GSK3β kinase (P49841 whole entry): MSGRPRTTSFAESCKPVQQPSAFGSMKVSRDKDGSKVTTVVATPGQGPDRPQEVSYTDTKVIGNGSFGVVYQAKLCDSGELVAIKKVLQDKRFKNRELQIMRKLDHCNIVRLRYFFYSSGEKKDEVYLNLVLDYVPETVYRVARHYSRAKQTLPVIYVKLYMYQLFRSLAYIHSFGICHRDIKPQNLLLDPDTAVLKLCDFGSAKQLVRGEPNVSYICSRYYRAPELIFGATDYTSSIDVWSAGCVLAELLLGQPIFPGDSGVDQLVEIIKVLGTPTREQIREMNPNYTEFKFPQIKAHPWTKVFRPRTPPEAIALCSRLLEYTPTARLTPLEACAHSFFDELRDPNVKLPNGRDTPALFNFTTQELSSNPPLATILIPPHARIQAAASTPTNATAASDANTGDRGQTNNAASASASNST
In short: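 Non-radioactive Z-lyte FRET read-out, kinase activity expressed as coumarin/fluorescein emission ratio. Compounds incubated with the reaction mixture one hour at room temperature in duplicate, then development buffer added for another hour. IC50 from non-linear regression of dose-response curves.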

[2] = test system: SW480 colon carcinoma cells; experiment: Cell viability assay (CellTiter-Glo) in SW480 colon carcinoma cells; format: cell-based, human; conditions: Homo sapiens, 96 h, four days
In short: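 SW480 cells stably carrying an Sp5-promoter luciferase reporter were plated at 2,000 cells/well in DMEM with 1% FBS and treated with compound for four days at 37 °C. Viability was read as ATP luminescence with CellTiter-Glo after about 12 min; DMSO-treated wells served as controls.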

[3] = test system: primary human fibroblasts derived from IPF patients (LL29 cells); experiment: Inhibition of the fibrotic process: αSMA staining in TGF-β1 treated LL29 fibroblasts; format: cell-based; conditions: Homo sapiens, Fibroblast, 96 h; LL29 cells, TGF-β1 20 ng/mL, 4 days, % αSMA positive cells
In short: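 LL29 fibroblasts from IPF patients, in F12 medium with 1% FBS, treated with TGF-β1 plus compound; TGF-β1 with DMSO as positive control, DMSO alone as negative control. After 4 days' incubation, SYTOX green nucleic acid stain added at 1 μM final, 30 min at room temperature.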

IL-6 = IL-6 inhibition in LPS-stimulated human peripheral blood mononuclear cells (HTRF); format: cell-based; conditions: Homo sapiens, PBMC; for EC50: huPBMCs, LPS 50 ng/mL, 22 hours, IL-6 HTRF; for inhibition at 10 µM: read-out: percent inhibition at 10 μM
Procedure: Fresh Normal PB MNC (Catalog #PB001, AllCells, Alameda, Calif.) were shipped overnight at 4° C. and resuspended in Roswell Park Memorial Institute (RPMI) 1640 Medium, with GlutaMAX Supplement (Catalog #61870127, ThermoFisher Scientific, Waltham, Mass.) supplemented with 1% Penicillin-Streptomycin (Catalog #15140163. ThermoFisher Scientific, Waltham, Mass.) and 1% fetal bovine serum (FBS) (Catalog #16140089, ThermoFisher Scientific, Waltham, Mass.) assay media. Fresh normal human peripheral blood mononuclear cells (huPBMCs) were resuspended in 1% FBS-RPMI assay media with 1% Penicillin-Streptomycin 1% to a cell concentration of 1×10e6 cells/mL. […] 50 ng/mL of Lipopolysaccharides from Escherichia coli 0111:B4 (Catalog #L5293-2ML, Sigma-Aldrich, St. Louis, Mo.) was added after 2 hours and cells were incubated for another 22 hours at 37° C.-5% CO2. After 22 hour incubation, a mixture of anti-IL6 XL665 and anti-IL-6 Cryptate diluted in reconstitution buffer (Catalog #62IL6PEC, Cisbio Inc., Bedford, Mass.) was added to each well. Following incubation for 3 hours at room temperature, Homogeneous Time-Resolved Fluorescence (HTRF) was measured using the Envision (Perkin Elmer, Shelton, Conn.) at 665 nm and […]. The ratio of fluorescence at 665 nm to 620 nm was used as a readout for IL-6 quantification. All samples were processed in duplicate. Readings were normalized to DMSO treated cells and normalized activities were utilized for EC50 calculations.

EC50 [1] [nM] | IC50 (DYRK1A kinase) [nM] | IC50 (GSK3β kinase) [nM] | EC50 [2] [nM] | EC50 (IL-6) [nM] | Structure (SMILES) | EC50 [3] [nM] | inhibition at 10 µM (IL-6) [%]
267 | 24 | 36 | > 10000 | 3150 | CC(C)CN1CC[C@H](NC(=O)c2n[nH]c3ccc(-c4cnn(C)c4)cc23)[C@@H](F)C1 [Compound 33, N-((3 S,4S)-3-Fluoro-1-isobutylpiperidin-4-yl)-5-(1-methyl-1H-pyrazol-4-yl)-1H-indazole-3-carboxamide] | 43 | –
474 | 7 | 23 | 691 | 348 | CC(C)(F)CN1CCC(NC(=O)c2n[nH]c3ccc(-c4cn[nH]c4)cc23)CC1 [Compound 36, N-(1-(2-Fluoro-2-methylpropyl)piperidin-4-yl)-5-(1H-pyrazol-4-yl)-1H-indazole-3-carboxamide] | 147 | –
747 | 5 | 14 | 849 | 546 | Cn1cc(-c2ccc3[nH]nc(C(=O)NC4CCN(CC(C)(C)F)CC4)c3c2)cn1 [Compound 37, N-(1-(2-Fluoro-2-methylpropyl)piperidin-4-yl)-5-(1-methyl-1H-pyrazol-4-yl)-1H-indazole-3-carboxamide] | 118 | –
> 10000 | > 10000 | > 10000 | > 10000 | > 10000 | Cn1cc(-c2cc(Cl)c3[nH]nc(C(=O)NC4CCN(CC(C)(C)F)CC4)c3c2)cn1 [Compound 38, 7-Chloro-N-(1-(2-fluoro-2-methylpropyl)piperidin-4-yl)-5-(1-methyl-1H-pyrazol-4-yl)-1H-indazole-3-carboxamide] | > 10000 | 8.8
3880 | 22 | 33 | 1310 | 1260 | CCn1cc(-c2ccc3[nH]nc(C(=O)NC4CCN(CC(C)(C)F)CC4)c3c2)cn1 [Compound 39, 5-(1-Ethyl-1H-pyrazol-4-yl)-N-(1-(2-fluoro-2-methylpropyl)piperidin-4-yl)-1H-indazole-3-carboxamide] | 272 | –
1720 | 45 | 687 | 1080 | 1930 | CC(C)(F)CN1CCC(NC(=O)c2n[nH]c3ccc(-c4cnn(C5CC5)c4)cc23)CC1 [Compound 40, 5-(1-Cyclopropyl-1H-pyrazol-4-yl)-N-(1-(2-fluoro-2-methylpropyl)piperidin-4-yl)-1H-indazole-3-carboxamide] | 68 | –
828 | 250 | 76 | 3000 | 2860 | Cn1ncc(-c2ccc3[nH]nc(C(=O)NC4CCN(CC(C)(C)F)CC4)c3c2)c1C(F)F [Compound 41, 5-(5-(Difluoromethyl)-1-methyl-1H-pyrazol-4-yl)-N-(1-(2-fluoro-2-methylpropyl)piperidin-4-yl)-1H-indazole-3-carboxamide] | 342 | –
> 10000 | 67 | 1060 | > 10000 | 9150 | Cc1noc(C)c1-c1ccc2[nH]nc(C(=O)NC3CCN(CC(C)(C)F)CC3)c2c1 [Compound 43, 5-(3,5-Dimethylisoxazol-4-yl)-N-(1-(2-fluoro-2-methylpropyl)piperidin-4-yl)-1H-indazole-3-carboxamide] | 2170 | –
1650 | 6 | 31 | 4770 | 1270 | CN1CC2(CCC(NC(=O)c3n[nH]c4ccc(-c5cnn(C)c5)cc34)CC2)C1 [Compound 45, 5-(1-Methyl-1H-pyrazol-4-yl)-N-(2-methyl-2-azaspiro [3.5]nonan-7-yl)-1H-indazole-3-carboxamide] | 355 | –
1460 | 4450 | 704 | 4500 | > 10000 | O=C(Nc1ccc(F)cc1)c1n[nH]c2ccc(-c3cnn(C4CC4)c3)cc12 [Compound 46, 5-(1-Cyclopropyl-1H-pyrazol-4-yl)-N-(4-fluorophenyl)-1H-indazole-3-carboxamide] | 543 | 48.3
239 | 23 | 260 | 354 | 5420 | O=C(Nc1ccc(F)cc1)c1n[nH]c2ccc(-c3cnn(C4CCNCC4)c3)cc12 [Compound 48, N-(4-Fluorophenyl)-5-(1-(piperidin-4-yl)-1H-pyrazol-4-yl)-1H-indazole-3-carboxamide] | 449 | –
256 | 15 | 187 | 208 | 3730 | O=C(Nc1ccc(F)cc1)c1n[nH]c2cc(F)c(-c3cnn(C4CCNCC4)c3)cc12 [Compound 49, 6-Fluoro-N-(4-fluorophenyl)-5-(1-(piperidin-4-yl)-1H-pyrazol-4-yl)-1H-indazole-3-carboxamide] | 1010 | –
1190 | 34 | 476 | 648 | 6050 | O=C(Nc1ccc(Cl)cc1)c1n[nH]c2cc(F)c(-c3cnn(C4CCNCC4)c3)cc12 [Compound 50, N-(4-Chlorophenyl)-6-fluoro-5-(1-(piperidin-4-yl)-1H-pyrazol-4-yl)-1H-indazole-3-carboxamide] | 1110 | –
560 | 16 | 558 | 305 | 2560 | CN1CCC(n2cc(-c3cc4c(C(=O)Nc5ccc(F)cc5)n[nH]c4cc3F)cn2)CC1 [Compound 51, 6-Fluoro-N-(4-fluorophenyl)-5-(1-(1-methylpiperidin-4-yl)-1H-pyrazol-4-yl)-1H-indazole-3-carboxamide] | 816 | –
4380 | 244 | 2080 | > 10000 | > 10000 | O=C(Nc1ccc(OC(F)F)cc1)c1n[nH]c2ccc(-c3cnn(C4CNC4)c3)cc12 [Compound 54, 5-(1-(Azetidin-3-yl)-1H-pyrazol-4-yl)-N-(4-(difluoromethoxy)phenyl)-1H-indazole-3-carboxamide] | 2920 | 9.7
428 | 37 | 1230 | 1340 | 3850 | O=C(Nc1ccc(OC(F)F)cc1)c1n[nH]c2ccc(-c3cnn(C4CCNCC4)c3)cc12 [Compound 55, N-(4-(Difluoromethoxy)phenyl)-5-(1-(piperidin-4-yl)-1H-pyrazol-4-yl)-1H-indazole-3-carboxamide] | 236 | –
376 | 27 | 330 | 201 | 2150 | O=C(Nc1ccc(OC(F)F)cc1)c1n[nH]c2cc(F)c(-c3cnn(C4CCNCC4)c3)cc12 [Compound 56, N-(4-(Difluoromethoxy)phenyl)-6-fluoro-5-(1-(piperidin-4-yl)-1H-pyrazol-4-yl)-1H-indazole-3-carboxamide] | 1530 | –
555 | 28 | 1290 | 327 | 2590 | CN1CCC(n2cc(-c3cc4c(C(=O)Nc5ccc(OC(F)F)cc5)n[nH]c4cc3F)cn2)CC1 [Compound 59, N-(4-(Difluoromethoxy)phenyl)-6-fluoro-5-(1-(1-methylpiperidin-4-yl)-1H-pyrazol-4-yl)-1H-indazole-3-carboxamide] | 2540 | –
